In patent US20220233457A1 (DAEGU CATHOLIC UNIVERSITY INDUSTRY ACADEMIC COOPERATION …, priority 2021, published 2022):
“Also recorded” adds a separate entry of the source.

Key:
[1] = test system: mouse induced to have a cerebral aneurysm; experiment: Trichrome staining, collagen content of cerebral artery wall; type: in vivo; settings: via tail vein, week 4
Description: (§1) A male C57BL/6J mouse was purchased from Samtako Bio Korea, and, after acclimation for about 1 week, the healthy animals were housed in a polycarbonate cage with random allocation to each test group. Environmental condition for breeding includes a temperature of 22±3° C., relative humidity of 50±10%, lighting hour of 12 hours, and illuminance of 150 to 300 lux. The animals were allowed free access to food and water. Hypertension was induced by a high salt diet, unilateral nephrectomy, and subcutaneous pump infusion of angiotensin II.
(§2) Specifically, a male C57BL/6J mouse was anesthetized with isoflurane gas and the left kidney was removed by surgery. One week after the surgery, the mouse was fixed onto a nose cone, anesthetized with isoflurane gas by inhalation, and then fixed on a stereostatic system. By using a 10 μl Hamilton syringe, 10 μl of 1.0 U elastase solution was injected to the right cistern to induce cerebral aneurysm. For elastase injection, 1.0 U elastase was injected through a hole on the right skull, under anesthetization with isoflurane gas by inhalation, by pushing the syringe to a space of cerebrospinal fluid in the right bottom, 2.5 mm behind the bregma (parietal point) and 1.0 mm to the right of the center line, and elastase was injected to the depth of […]. […]

RAW 264.7 cells = experiment: Cytotoxicity, MTT assay; type: cell-based; settings: for concentration at which cell viability is lowered by cytotoxicity: MTT assay, treatment time not stated in Example 7; for melittin concentration at which cell viability was significantly decreased: RAW 264.7 cells, 0.1-4 μg/ml tested
[2] = test system: mouse induced to have a cerebral aneurysm; experiment: Verhoff Van Gieson staining, elastin content of cerebral arterial wall; type: in vivo; settings: healthy group 37.6±8.8%, diseased group 5.9±3.7%; via tail vein; week 4
Description: as §1, §2
Elastin content was analyzed by Verhoff Van Gieson staining technique.

TNF-α = TNF-α expression in cerebral arterial wall (IHC, real-time PCR, Western blot); type: in vivo, mouse; settings: for expression level of TNF-α protein: Western blot; for expression level of TNF-α protein / expression level of TNF-α gene: compared to group induced to have cerebral aneurysm; for expression level of TNF-α in cerebral arterial wall: immunohistochemistry staining, levels 0 to 2, compared to diseased group (D); for expression level of TNF-α gene: real-time PCR
Description: as §1
(§3) Specifically, a male C57BL/6J mouse was anesthetized with isoflurane gas and the left kidney was removed by surgery. One week after the surgery, the mouse was fixed onto a nose cone, anesthetized with isoflurane gas by inhalation, and then fixed on a stereostatic system. By using a 10 μl Hamilton syringe, 10 μl of 1.0 U elastase solution was injected to the right cistern to induce cerebral aneurysm. For elastase injection, 1.0 U elastase was injected through a hole on the right skull, under anesthetization with isoflurane gas by inhalation, by pushing the syringe to a space of cerebrospinal fluid in the right bottom, 2.5 mm behind the bregma (parietal point) and 1.0 mm to the right of the center line, and elastase was injected to the depth of […].
(§4) After that, to have a continuous infusion of angiotensin II, an osmotic pump was subcutaneously inserted (1000 ng/kg/min) and cerebral aneurysm was induced by performing a high salt diet (8% NaCl, Enbigo) for 14 days (FIG. 2).
(§5) To the all test groups, the pharmaceutical was administered in an amount of 0.1 ml.
(§6) By using the brain tissues harvested in above Example 2, a change in the expression level of TNF-α in the cerebral arterial wall was determined by immunohistochemistry (IHC) staining. The result was classified into level 0 to level 2 and subjected to statistical analysis, while it was measured by real-time PCR and Western blot assays.
(§7) For the real-time PCR performed in above Examples 4 to 6, the primers described in the following Table 1 were used.

CD68 = CD68 (macrophage marker) expression in cerebral arterial wall (IHC); type: in vivo, mouse; settings: immunohistochemistry staining, levels 0 to 2; compared to diseased group (D)
Description: as §1
Specifically, a male C57BL/6J mouse was anesthetized with isoflurane gas and the left kidney was removed by surgery. One week after the surgery, the mouse was fixed onto a nose cone, anesthetized with isoflurane gas by inhalation, and then fixed on a stereostatic system. By using a 10 μl Hamilton syringe, 10 μl of 1.0 U elastase solution was injected to the right cistern to induce cerebral aneurysm. […]
as §6, with “MCP-1 and CD68” for “TNF-α”, “blot.” for “blot assays.”

[3] = test system: mouse induced to have a cerebral aneurysm; experiment: H&E staining of cerebral arteries (diameter, thickness) in animal model induced to have a cerebral aneurysm; type: in vivo; settings: compared to diseased group (D); via tail vein, 5 times every three days; brain harvested at week 4
Description: as §1, §3, §4
To the all test groups, the pharmaceutical was administered in an amount of 0.1 ml. […]
According to the visualization of cell nucleus, cytoplasm, and extracellular matrix by H&E staining of cerebral artery tissues, a change in the structure and shape of the cerebral artery was analyzed. To examine a change in the brain arterial wall, an immunohistochemical microscopic image was scanned and the diameter and thickness of the artery were measured by using Case Viewer software.

MCP-1 = MCP-1 expression in cerebral arterial wall (IHC, real-time PCR, Western blot); type: in vivo, mouse; settings: compared to diseased group (D); for expression level of MCP-1 protein: Western blot; for expression level of MCP-1 in the cerebral arterial wall: immunohistochemistry staining, levels 0 to 2
Description: as §1, §3, §4, §5
as §6, with “MCP-1 and CD68” for “TNF-α”, “blot.” for “blot assays.”
as §7

MMP-9 = MMP-9 expression in cerebral arterial wall (IHC, real-time PCR, Western blot); type: in vivo, mouse; settings: compared to diseased group (D); for expression level of MMP-9 protein: Western blot; for MMP-9 expression in the cerebral arterial wall: immunohistochemistry staining, levels 0 to 2
Description: as §1, §3, §4, §5
as §6, with “MMP-9” for “TNF-α”, “blot.” for “blot assays.”
as §7

mouse blood = experiment: Hemolysis test; type: cell-based; settings: at 50 μg/mL
NFκB = NFκB expression in cerebral arterial wall (real-time PCR, Western blot); type: in vivo, mouse; settings: compared to group induced to have cerebral aneurysm; for expression level of NFκB protein: Western blot; for expression level of NFκB gene: real-time PCR
[4] = Stability of melittin solution on storage; type: physicochemical; settings: 0.36 mM (=1.0 mg/ml) melittin solution, 4° C. for 8 weeks

Row | Compound | concentration at which cell viability is lowered by cytotoxicity (RAW 264.7 cells) | elastin content [2] | expression level of TNF-α protein (TNF-α) | expression level of TNF-α in cerebral arterial wall (TNF-α) | expression level of TNF-α gene (TNF-α) | expression level of CD68 in the cerebral arterial wall (CD68) | thickness of cerebral arteries [3] | expression level of MCP-1 protein (MCP-1) | expression level of MCP-1 in the cerebral arterial wall (MCP-1) | expression level of MMP-9 protein (MMP-9) | MMP-9 expression in the cerebral arterial wall (MMP-9) | expression level of NFκB protein (NFκB) | expression level of NFκB gene (NFκB) | also measured
1 | MeLioN: iron oxide nanoparticle loaded with melittin, formed by linking iron oxide nanoparticle, L-arginine, and melittin | > 4000 ng/mL | 34.9±6.2% | lower | suppressed | lower | suppressed | increase; also recorded: significantly greater | lower | suppressed | lower | suppressed | lower | lower | collagen content ([1]; normal group 8.7±3.8%, diseased group 32.0±5.5%): 12.6±5.1%; melittin concentration at which cell viability was significantly decreased (RAW 264.7 cells; 12 h treatment): > 4 µg/mL; melittin concentration at which cell viability was significantly decreased (RAW 264.7 cells; 24 h treatment): > 4 µg/mL; diameter of cerebral arteries [3]: statistically significant decrease; also recorded: significantly smaller; expression level of MCP-1 gene (MCP-1; real-time PCR): lower; expression level of MMP-9 gene (MMP-9; real-time PCR): lower; Hemolysis (mouse blood): approximately 10%
2 | CC[C@H](C)[C@H](NC(=O)CN)C(=O)NCC(=O)N[C@@H](C)C(=O)N[C@H](C(=O)N[C@@H](CC(C)C)C(=O)N[C@@H](CCCCN)C(=O)N[C@H](C(=O)N[C@@H](CC(C)C)C(=O)N[C@H](C(=O)N[C@H](C(=O)NCC(=O)N[C@@H](CC(C)C)C(=O)N1CCC[C@H]1C(=O)N[C@@H](C)C(=O)N[C@@H](CC(C)C)C(=O)N[C@H](C(=O)N[C@@H](CO)C(=O)N[C@@H](Cc1c[nH]c2ccccc12)C(=O)N[C@H](C(=O)N[C@@H](CCCCN)C(=O)N[C@@H](CCCNC(=N)N)C(=O)N[C@@H](CCCCN)C(=O)N[C@@H](CCCNC(=N)N)C(=O)N[C@@H](CCC(N)=O)C(=O)N[C@@H](CCC(N)=O)C(N)=O)[C@@H](C)CC)[C@@H](C)CC)[C@@H](C)O)[C@@H](C)O)C(C)C)C(C)C [MEL, melittin] | ≥ 500 ng/mL | 19.7±7.8% | lower | suppressed | lower | suppressed | increase | lower | suppressed | lower | suppressed | lower | lower | stability of solution [4]: stably maintained; collagen content compared to the diseased group (D) ([1]; statistical comparison with diseased group): no statistical difference
